The assay can be described thus: HT3 cells were treated for three days with increasing concentrations of PMPG-diisopropyloxy ester ranging from 0.2 μM to 20 μM. Cells (HT3 RPMI+10% PBS) were incubated with compound for 24 hr after which PSTS primer (phosphorothioate-d(AATCCGTCGAGCAGAGTT (SEQ ID NO: 6) containing a 5′ Cy-5 label) (7.5 μM) and fresh compound are added for an additional 24 hr. Cells were lysed and endogenous telomerase inactivated by heating (15 min, 75° C.). Products were amplified by 30 cycles of PCR under TRAP conditions set forth above and quantified. The following applies: HT-3.

Take `C=C(COCP(=O)(OCOC(=O)OC(C)C)OCOC(=O)OC(C)C)Cn1cnc2c(=O)[nH]c(N)nc21`: the concentration giving a half-maximal response (EC50) came to 10.8 µM.
Then `CC(C)OC(=O)OCOP(=O)(COC(C)Cn1cnc2c(=O)[nH]c(N)nc21)OCOC(=O)OC(C)C` (configuration not stated), with 2.15 µM.

As usually defined, the EC50 is the concentration at which the effect is half-maximal.

The record behind these values is ChEMBL document CHEMBL5725651, “Guanine analogs as telomerase substrates and telomere length affectors” (2018).
